Data published in patent US20260078103A1, “ISOQUINOLONES AS PI3K INHIBITORS” (OnKure, Inc., priority 2022, published 2026).
Like-named read-outs stand apart in the source and are kept apart here.

Tests used:
Type in all cases: cell-based
[1] = tested on: phosphorylation of AKT (pAKT) in T47D cells expressing mutant PI3Ka (H1047R); assay: In vitro cell pAKT (Ser473) HTRF, T47D cells; settings: cellular pAKT, T47D cells, mutant PI3Ka (H1047R), 6 hours, read-out: Avg T-47D IC50
In short: (§1)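 Cells seeded on plates pre-stamped with 10-point compound dilutions, then grown 6 h at 37 °C (T47D in RPMI/10% FBS/insulin; SKBR3 in McCoy's 5a/10% FBS). Lysates read for pAKT Ser473 by HTRF after overnight antibody incubation. Inhibition normalised to 0.1% DMSO and 10 uM alpelisib; IC50 by four-parameter fit.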

[2] = tested on: T47D cells expressing mutant PI3Ka (H1047R); assay: In vitro cell proliferation, T47D cells (CellTiter-Glo); settings: inhibition of proliferation, read-out: Avg T-47D EC50
In short: (§2)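 Proliferation was read by CellTiter-Glo luminescence after 72 h of exposure to 10-point compound dilutions at 37 °C and 5% CO2. T47D (RPMI, 10% FBS, insulin 0.2 units/mL) and SKBR3 (McCoys 5a, 10% FBS) cells were seeded at 1,500 cells/well. EC50 was fitted from inhibition relative to DMSO and 10 uM Alpelisib.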

[3] = tested on: phosphorylation of AKT (pAKT) in SKBR3 cells express WT PI3Ka; assay: In vitro cell pAKT (Ser473) HTRF, SKBR3 cells; settings: cellular pAKT
In short: as §1

[4] = tested on: SKBR3 cells express WT PI3Ka; assay: In vitro cell proliferation, SKBR3 cells (CellTiter-Glo); settings: inhibition of proliferation
In short: as §2

| Compound | IC50 [1] | EC50 ([2]; 72 hours) | IC50 ([3]; 6 hours) | EC50 ([4]; 72 hours) | IC50 ([3]; Homo sapiens, SK-BR-3, 6 h) | EC50 ([4]; Homo sapiens, SK-BR-3, 72 h) | IC50 ([1]; Homo sapiens, T47D, 6 h) | EC50 ([2]; Homo sapiens, T47D, 72 h) |
| --- | --- | --- | --- | --- | --- | --- | --- | --- |
| COc1ccc(-c2cc3c(C(C)Nc4ccccc4C(=O)O)cc(C)cc3c(=O)n2C)cn1 (single isomer, unassigned) [Example 156] | 2 to 15 µM | 2 to 15 µM | > 15 µM | > 15 µM | – | – | – | – |
| Cc1cc(C(C)Nc2ccccc2C(=O)O)c2cc(N3CCC4(CCOCC4)CC3)n(C)c(=O)c2c1 (single isomer, unassigned) [Example 166] | 2 to 15 µM | 2 to 15 µM | > 15 µM | > 15 µM | – | – | – | – |
| Cc1cc(C(C)Nc2ccccc2C(=O)O)c2cc(N3CCC4(CCOCC4)CC3)n(C)c(=O)c2c1 (single isomer, unassigned) [Example 167] | 0.001 to 0.5 µM | 0.001 to 0.5 µM | 2 to 15 µM | 2 to 15 µM | – | – | – | – |
| Cc1cc(C(C)Nc2ccccc2C(=O)O)c2cc(N3CCC4(CCCCO4)CC3)n(C)c(=O)c2c1 (single isomer, unassigned) [Example 168] | 0.001 to 0.5 µM | 0.001 to 0.5 µM | 2 to 15 µM | > 15 µM | – | – | – | – |
| Cc1cc(C(C)Nc2ccccc2C(=O)O)c2cc(N3CCC4(CCCCO4)CC3)n(C)c(=O)c2c1 (single isomer, unassigned) [Example 169] | 2 to 15 µM | > 15 µM | > 15 µM | > 15 µM | – | – | – | – |
| Cc1cc(C(C)Nc2ccccc2C(=O)O)c2cc(N3Cc4ccc(F)c(F)c4C3)n(C)c(=O)c2c1 (single isomer, unassigned) [Example 177] | > 15 µM | 2 to 15 µM | – | – | > 15 µM | > 15 µM | – | – |
| Cc1cc(C(C)Nc2ccccc2C(=O)O)c2cc(N3Cc4ccc(F)c(F)c4C3)n(C)c(=O)c2c1 (single isomer, unassigned) [Example 178] | 0.001 to 0.5 µM | 0.5 to 2 µM | > 15 µM | > 15 µM | – | – | – | – |
| Cc1cc(C(C)Nc2ccccc2C(=O)O)c2cc(N3CC(C)(O)C3)n(C)c(=O)c2c1 (single isomer, unassigned) [Example 181] | > 15 µM | > 15 µM | – | – | > 15 µM | > 15 µM | – | – |
| Cc1cc(C(C)Nc2ccccc2C(=O)O)c2cc(N3CC(C)(O)C3)n(C)c(=O)c2c1 (single isomer, unassigned) [Example 182] | 2 to 15 µM | 2 to 15 µM | > 15 µM | > 15 µM | – | – | – | – |
| COC1(C)CN(c2cc3c(C(C)Nc4ccccc4C(=O)O)cc(C)cc3c(=O)n2C)C1 (single isomer, unassigned) [Example 183] | > 15 µM | > 15 µM | – | – | > 15 µM | > 15 µM | – | – |
| Cc1cc([C@@H](C)Nc2ccccc2C(=O)O)c2cc(N3CC4CC3CN4CC(F)(F)F)n(C)c(=O)c2c1 (single isomer, unassigned) [Example 211] | – | 0.5 to 2 µM | – | – | > 15 µM | > 15 µM | 0.001 to 0.5 µM | – |
| COC1(C)CN(c2cc3c(C(C)Nc4ccccc4C(=O)O)cc(C)cc3c(=O)n2C)C1 (single isomer, unassigned) [Example 213] | 0.001 to 0.5 µM | 0.5 to 2 µM | > 15 µM | > 15 µM | – | – | – | – |
| Cc1cc([C@@H](C)Nc2ccccc2C(=O)O)c2cc(N3CC4CC3CN4CC(F)(F)F)n(C)c(=O)c2c1 (single isomer, unassigned) [Example 224] | 0.001 to 0.5 µM | 0.001 to 0.5 µM | > 15 µM | > 15 µM | – | – | – | – |
| CCN1CCN(c2cc3c([C@@H](C)Nc4ccccc4C(=O)O)cc(C)cc3c(=O)n2C)CC1C(F)(F)F (single isomer, unassigned) [Example 266] | – | – | – | > 15 µM | > 15 µM | – | 0.001 to 0.5 µM | 0.001 to 0.5 µM |
| CCN1CCN(c2cc3c([C@@H](C)Nc4ccccc4C(=O)O)cc(C)cc3c(=O)n2C)CC1C(F)(F)F (single isomer, unassigned) [Example 267] | 0.001 to 0.5 µM | 0.001 to 0.5 µM | > 15 µM | 2 to 15 µM | – | – | – | – |
| Cc1cc([C@@H](C)Nc2ccccc2C(=O)O)c2cc(N3CCN(C(C)C(F)(F)F)CC3)n(C)c(=O)c2c1 (single isomer, unassigned) [Example 278] | – | – | – | – | > 15 µM | > 15 µM | 0.001 to 0.5 µM | 0.001 to 0.5 µM |
| Cc1cc([C@@H](C)Nc2ccccc2C(=O)O)c2cc(N3CCN(C(C)C(F)(F)F)CC3)n(C)c(=O)c2c1 (single isomer, unassigned) [Example 279] | 0.001 to 0.5 µM | 0.001 to 0.5 µM | > 15 µM | > 15 µM | – | – | – | – |

| Compound | IC50 [1] | EC50 ([2]; 72 hours) | IC50 ([3]; 6 hours) | EC50 ([4]; 72 hours) | IC50 ([3]; Homo sapiens, SK-BR-3, 6 h) | EC50 ([4]; Homo sapiens, SK-BR-3, 72 h) | IC50 ([1]; Homo sapiens, T47D, 6 h) | EC50 ([2]; Homo sapiens, T47D, 72 h) |
| --- | --- | --- | --- | --- | --- | --- | --- | --- |
| Cc1cc([C@@H](C)Nc2ccccc2C(=O)O)c2cc(N3CCN(C)C(C(F)(F)F)C3)n(C)c(=O)c2c1 (single isomer, unassigned) [Example 301] | – | – | – | – | > 15 µM | > 15 µM | 0.001 to 0.5 µM | 0.001 to 0.5 µM |
| Cc1cc([C@@H](C)Nc2ccccc2C(=O)O)c2cc(N3CCN(C)C(C(F)(F)F)C3)n(C)c(=O)c2c1 (single isomer, unassigned) [Example 302] | 0.001 to 0.5 µM | 0.001 to 0.5 µM | > 15 µM | > 15 µM | – | – | – | – |
| COC[C@@H]1CC1c1cc2c([C@@H](C)Nc3ccccc3C(=O)O)cc(C)cc2c(=O)n1C (single isomer, unassigned) [Example 308] | – | – | 2 to 15 µM | 2 to 15 µM | – | – | 0.001 to 0.5 µM | 0.001 to 0.5 µM |
| Cc1cc([C@@H](C)Nc2ccccc2C(=O)O)c2cc(C3C[C@H]3C3CC3)n(C)c(=O)c2c1 (single isomer, unassigned) [Example 309] | – | – | 2 to 15 µM | – | – | > 15 µM | 0.001 to 0.5 µM | 0.001 to 0.5 µM |
| Cc1cc([C@@H](C)Nc2ccccc2C(=O)O)c2cc(C3C[C@H]3C)n(C)c(=O)c2c1 (single isomer, unassigned) [Example 310] | – | – | – | 2 to 15 µM | > 15 µM | – | 0.001 to 0.5 µM | 0.001 to 0.5 µM |
| Cc1cc([C@@H](C)Nc2ccccc2C(=O)O)c2cc(C3C[C@H]3C(C)C)n(C)c(=O)c2c1 (single isomer, unassigned) [Example 311] | – | – | – | > 15 µM | > 15 µM | – | 0.001 to 0.5 µM | 0.001 to 0.5 µM |
| Cc1cc([C@@H](C)Nc2ccccc2C(=O)O)c2cc(C3C[C@H]3C(C)C)n(C)c(=O)c2c1 (single isomer, unassigned) [Example 312] | 0.001 to 0.5 µM | 0.001 to 0.5 µM | > 15 µM | 2 to 15 µM | – | – | – | – |
| Cc1cc([C@@H](C)Nc2ccccc2C(=O)O)c2cc(C3C[C@H]3C)n(C)c(=O)c2c1 (single isomer, unassigned) [Example 313] | 0.001 to 0.5 µM | 0.001 to 0.5 µM | > 15 µM | > 15 µM | – | – | – | – |
| COC[C@@H]1CC1c1cc2c([C@@H](C)Nc3ccccc3C(=O)O)cc(C)cc2c(=O)n1C (single isomer, unassigned) [Example 314] | 0.001 to 0.5 µM | 0.001 to 0.5 µM | > 15 µM | > 15 µM | – | – | – | – |
| Cc1cc([C@@H](C)Nc2ccccc2C(=O)O)c2cc(C3C[C@H]3C3CC3)n(C)c(=O)c2c1 (single isomer, unassigned) [Example 315] | 0.001 to 0.5 µM | 0.001 to 0.5 µM | > 15 µM | > 15 µM | – | – | – | – |
| Cc1cc([C@@H](C)Nc2cccc(F)c2C(=O)O)c2cc(C3C[C@H]3C)n(C)c(=O)c2c1 (single isomer, unassigned) [Example 355] | – | – | – | – | > 15 µM | > 15 µM | 0.001 to 0.5 µM | 0.001 to 0.5 µM |
| Cc1cc([C@@H](C)Nc2cccc(F)c2C(=O)O)c2cc(C3C[C@H]3C)n(C)c(=O)c2c1 (single isomer, unassigned) [Example 356] | 0.001 to 0.5 µM | 0.001 to 0.5 µM | > 15 µM | > 15 µM | – | – | – | – |
| Cc1cc(C(C)Nc2ccccc2C(=O)O)c2c(F)c(C3=CCN(CC(F)(F)F)CC3)n(C)c(=O)c2c1 (single isomer, unassigned) [Example 359] | 0.001 to 0.5 µM | 0.001 to 0.5 µM | > 15 µM | > 15 µM | – | – | – | – |
| Cc1cc(C(C)Nc2ccccc2C(=O)O)c2c(F)c(C3=CCN(CC(F)(F)F)CC3)n(C)c(=O)c2c1 (single isomer, unassigned) [Example 360] | > 15 µM | 2 to 15 µM | > 15 µM | > 15 µM | – | – | – | – |
| Cc1cc([C@@H](C)Nc2ccccc2C(=O)O)c2cc([C@H]3C[C@@H]3C(C)(C)O)n(C)c(=O)c2c1 (single isomer, unassigned) [Example 373] | – | – | – | – | > 15 µM | > 15 µM | 0.001 to 0.5 µM | 0.001 to 0.5 µM |
| Cc1cc([C@@H](C)Nc2ccccc2C(=O)O)c2cc([C@H]3C[C@@H]3C(C)(C)O)n(C)c(=O)c2c1 (single isomer, unassigned) [Example 374] | 0.001 to 0.5 µM | 0.001 to 0.5 µM | > 15 µM | > 15 µM | – | – | – | – |
| Cc1cc([C@@H](C)Nc2ccccc2C(=O)O)c2cc(C3CC3(F)F)n(C)c(=O)c2c1 (single isomer, unassigned) [Example 384] | – | – | – | – | > 15 µM | > 15 µM | 0.001 to 0.5 µM | 0.001 to 0.5 µM |
